According to ChEMBL document CHEMBL1151292, “Antineoplastic activity and cytotoxicity of flavones, isoflavones, and flavanones” (1979):
Values after ≈ are worked out from the molar mass of the structure shown. Active and inactive are the calls of the source.

What was measured:
KB = assay: Cytotoxicity against human KB cells; type: functional; conditions: read-out: ED50 (the source's name)
CCRF S-180 = assay: In vivo antitumor activity against mouse S180 cells; type: functional, organism-based
[1] = system: Lewis lung carcinoma cell line; assay: In vivo antitumor activity against mouse LLC cells; type: functional, organism-based
Walker 256 = assay: In vivo antitumor activity against rat Walker 256 cells; type: functional, organism-based
P388 = assay: In vivo antitumor activity against mouse P388 cells; type: functional, organism-based
CA-755 = assay: In vivo antitumor activity against mouse CA-755 cells; type: functional, organism-based
L1210 = assay: In vivo antitumor activity against mouse L1210 cells; type: functional, organism-based
FV = assay: In vivo antitumor activity against mouse FV cells; type: functional, organism-based

SMILES | EC50 (KB) | Activity (CCRF S-180) | Activity [1] | Activity (Walker 256) | Activity (P388) | Activity (CA-755) | Activity (L1210) | Activity (FV)
O=c1cc(-c2ccccc2)oc2cccc(O)c12 [5-HYDROXYFLAVONE] | 20 µg/mL (≈ 83.9 µM) | inactive | inactive | Active |  |  |  | 
O=c1c(O)c(-c2ccc(O)cc2O)oc2cc(O)cc(O)c12 |  | inactive |  |  | inactive | inactive | inactive | 
COc1cc(OC)c(-c2oc3ccccc3c(=O)c2O)cc1OC | 5 µg/mL (≈ 15.2 µM) | inactive |  |  |  |  | inactive | inactive
COC1(O)C(=O)c2ccccc2OC1(OC)c1ccc(C)cc1 (centres undefined) |  |  |  | inactive |  |  | inactive | 
COc1ccc(-c2cc(=O)c3c(OC)c(OC)c(OC)c(OC)c3o2)c(OC)c1 | 15 µg/mL (≈ 37.3 µM) | inactive | inactive |  |  |  |  | 
CCOC(=O)c1oc2cc(O)cc(O)c2c(=O)c1-c1ccc(OC)cc1 | 21 µg/mL (≈ 58.9 µM) | inactive | Active |  |  |  | inactive | 
O=C1CC(c2ccccc2)Oc2ccccc21 (centres undefined) |  | inactive |  |  |  | inactive | inactive | inactive
COc1ccc(-c2cc(=O)c3cc(OC)c(OC)c(OC)c3o2)cc1 | 5 µg/mL (≈ 14.6 µM) | inactive | inactive | inactive |  |  |  | inactive
COc1ccc(-c2oc3ccc(C)cc3c(=O)c2O)cc1 | 2 µg/mL (≈ 7.08 µM) | inactive | inactive |  |  | inactive | inactive | 
COc1ccc(-c2coc3cc(OC)c(OC)c(OC)c3c2=O)cc1 | 34 µg/mL (≈ 99.3 µM) | inactive |  |  |  |  |  | Active
O=c1cc(-c2ccccc2)oc2cc(O)cc(O)c12 [CHRYSIN] | 13 µg/mL (≈ 51.1 µM) |  |  | inactive |  |  | inactive | 
COc1c(OC)c(OC)c2c(=O)cc(-c3ccc(OC(C)=O)cc3)oc2c1OC | 3 µg/mL (≈ 7.49 µM) | inactive | inactive |  |  | inactive |  | 
COc1ccc(-c2oc3cc(O)c(OC)c(O)c3c(=O)c2OC)cc1O [CENTAUREIDIN] | 0.4 µg/mL (≈ 1.11 µM) |  |  |  | inactive |  |  | 
O=C1c2c(O)cc(O)cc2OC(c2ccc(O)c(O)c2)C1O (centres undefined) [TAXIFOLIN] | 40 µg/mL (≈ 131 µM) | inactive |  | inactive |  | inactive |  | 
C[C@@H]1O[C@@H](Oc2c(-c3cc(O)c(O)c(O)c3)oc3cc(O)cc(O)c3c2=O)[C@H](O)[C@H](O)[C@H]1O | 8.3 µg/mL (≈ 17.9 µM) | inactive | inactive |  |  | inactive | inactive | 
COc1ccccc1-c1cc(=O)c2ccc(OC)c(OC)c2o1 | 4 µg/mL (≈ 12.8 µM) | inactive | inactive |  |  | inactive | inactive | 
COc1cc(OC)c(-c2cc(=O)c3c(OC)c(OC)c(OC)c(OC)c3o2)cc1OC | 13 µg/mL (≈ 30.1 µM) |  | inactive | Active |  |  |  | 
O=C1c2cc(O)c(O)cc2OC(c2ccc(O)c(O)c2)C1O (centres undefined) |  | inactive |  |  | inactive |  | inactive | 
O=c1cc(-c2ccccc2)oc2ccc(O)cc12 [6-HYDROXYFLAVONE] | 18 µg/mL (≈ 75.6 µM) | inactive | Active | inactive |  |  |  | 
COc1ccc(-c2coc3c(OC)c(OC)c(OC)c(OC)c3c2=O)cc1 |  |  |  |  |  |  |  | Active
O=c1c(O)c(-c2ccc(O)c(O)c2)oc2cc(O)cc(O)c12 [QUERCETIN] | 25 µg/mL (≈ 82.7 µM) |  |  | Active |  |  |  | 
COc1ccc(-c2cc(=O)c3c(O)c(OC)c(O)cc3o2)cc1 [PECTOLINARIGENIN] | 3 µg/mL (≈ 9.55 µM) | inactive |  | inactive | inactive |  | inactive | 
COc1ccc2c(c1)C(=O)C(O)(OC)C(OC)(c1ccccc1)O2 (centres undefined) |  |  |  | inactive |  |  | inactive | 
CCOC1(O)C(=O)c2ccccc2OC1(OCC)c1ccccc1 (centres undefined) |  |  |  | inactive |  |  | inactive | 
COc1cc(OC)cc(-c2cc(=O)c3c(OC)c(OC)c(OC)c(OC)c3o2)c1 | 3 µg/mL (≈ 7.46 µM) | inactive | inactive |  |  |  |  | Active
COc1ccc(-c2cc(=O)c3c(O)cc(OC)cc3o2)cc1 [APIGENIN DIMETHYLETHER] | 45 µg/mL (≈ 151 µM) | inactive | inactive |  | inactive |  | inactive | 
O=c1c(O[C@@H]2O[C@H](CO)[C@@H](O)[C@H](O)[C@H]2O)c(-c2ccc(O)c(O)c2)oc2cc(O)cc(O)c12 [ISOQUERCETIN] | > 100 µg/mL | inactive |  | inactive | inactive | inactive | inactive | 
COc1cc2occ(-c3ccc(O)cc3)c(=O)c2c(OC)c1O |  |  |  |  |  |  |  | inactive

SMILES | EC50 (KB) | Activity (CCRF S-180) | Activity [1] | Activity (Walker 256) | Activity (P388) | Activity (CA-755) | Activity (L1210) | Activity (FV)
Nc1c(-c2ccccc2)oc2ccc(Cl)cc2c1=O | > 100 µg/mL | inactive |  |  |  |  | inactive | inactive
CCOc1ccc(-c2coc3cc(C)c(OCC)c(C)c3c2=O)cc1 |  |  |  |  |  |  |  | inactive
O=c1cc(-c2ccc(F)cc2)oc2ccccc12 |  | inactive | inactive |  |  |  | inactive | 
COc1ccc(-c2oc3cc(O)cc(O)c3c(=O)c2OC)cc1O | 2 µg/mL (≈ 6.06 µM) |  |  |  | inactive |  |  | 
COc1cc2c(=O)cc(-c3ccc(O)cc3)oc2c(OC)c1OC | 0.7 µg/mL (≈ 2.13 µM) | inactive | inactive | Active |  |  |  | Active
COc1c(OC)c(OC)c2c(=O)cc(-c3ccc4c(c3)OCO4)oc2c1OC |  |  |  | inactive |  |  |  | 
O=c1c(O)c(-c2ccc(O)c(O)c2)oc2cc(O)ccc12 [FISETIN] | > 100 µg/mL | inactive | inactive |  | inactive |  | inactive | 
Cc1oc2cc(O)ccc2c(=O)c1-c1ccccc1 |  |  |  | inactive |  |  | inactive | 
C[C@@H]1O[C@@H](OC[C@H]2O[C@@H](Oc3c(-c4ccc(O)c(O)c4)oc4cc(O)cc(O)c4c3=O)[C@H](O)[C@@H](O)[C@@H]2O)[C@H](O)[C@H](O)[C@H]1O |  | inactive | inactive | Active |  | inactive | inactive | 
O=c1cc(-c2ccccc2)oc2cc(O)ccc12 |  | inactive | inactive |  |  |  | inactive | 
O=C1CC(c2ccc(O)cc2)Oc2cc(O)cc(O)c21 (centres undefined) |  | inactive | inactive |  |  | inactive | inactive | 
O=c1cc(-c2ccc(O)cc2)oc2c(O)c(O)c(O)cc12 | 22 µg/mL (≈ 76.9 µM) |  | inactive | inactive |  |  |  | 
COc1ccc(-c2cc(=O)c3c(OC)c(OC)c(OC)c(OC)c3o2)cc1OC [NOBILETIN] | 3 µg/mL (≈ 7.46 µM) |  | inactive | inactive |  |  |  | 
COc1cc(-c2cc(=O)c3c(OC)c(OC)c(OC)c(OC)c3o2)cc(OC)c1OC [HEPATAMETHOXYFLAVONE] | 0.5 µg/mL (≈ 1.16 µM) | inactive | inactive |  |  | inactive | inactive | 
COc1ccc(-c2cc(=O)c3ccccc3o2)c(OC)c1OC | 13 µg/mL (≈ 41.6 µM) | inactive | inactive |  |  | inactive | inactive | 
O=c1c(O)c(-c2c(O)cccc2O)oc2ccccc12 | > 100 µg/mL | inactive |  |  |  |  | inactive | inactive
O=C1c2ccc(O)cc2OC(c2ccc(O)c(O)c2)C1O (centres undefined) |  | inactive | inactive |  |  | inactive | inactive | 
COc1ccc(-c2cc(=O)c3c(O)cc(O)cc3o2)cc1 [ACACETIN] | > 100 µg/mL | inactive |  |  | inactive | inactive | inactive | 
O=c1cc(-c2cccc(F)c2)oc2ccccc12 |  | inactive | inactive |  |  |  | inactive | 
O=c1c(O)c(-c2ccc(Cl)cc2)oc2ccccc12 |  |  |  | inactive |  |  | inactive | 
O=c1c(-c2ccc3c(c2)OCO3)coc2cc(O)ccc12 |  |  |  | inactive |  |  | inactive | 
COc1ccc(OC)c(-c2cc(=O)c3c(OC)c(OC)c(OC)c(OC)c3o2)c1 | 4 µg/mL (≈ 9.94 µM) | inactive |  |  |  |  |  | Active
COc1ccc(C2(OC)Oc3cc(OC)ccc3C(=O)C2(O)OC)cc1 (centres undefined) |  |  |  | inactive |  |  | inactive | 
COc1ccc2c(=O)c(C)c(-c3ccccc3)oc2c1 | 43 µg/mL (≈ 161 µM) | inactive |  |  |  |  | inactive | Active
COc1cc(O)c2c(=O)c(O[C@@H]3O[C@H](CO[C@@H]4O[C@@H](C)[C@H](O)[C@@H](O[C@@H]5O[C@@H](C)[C@H](O)[C@@H](O)[C@H]5O)[C@H]4O)[C@@H](O)[C@H](O)[C@H]3O)c(-c3ccc(O)c(O)c3)oc2c1 | 8.5 µg/mL (≈ 11 µM) | inactive | inactive |  |  | inactive | inactive | 
COc1ccc(-c2oc3cc(OC)ccc3c(=O)c2O)cc1 |  |  | inactive |  |  | inactive | inactive | 
COc1ccc(C2(OC)Oc3ccccc3C(=O)C2(O)O)cc1 (centres undefined) |  |  |  | inactive |  |  | inactive | 
